Test results taken from publication PMC10444810, “Induction of open-form bile canaliculus formation by hepatocytes for evaluation of biliary drug excretion” (Communications Biology, 2023).
Values joined by “and” are separate entries in the source; they are usually repeats but may differ in a detail not shown here. Equal entries are not always repeated. Structures can show the parent of a compound that is named as a salt. Where two headings read alike, the source gives them in different places.

Experiments:
MRP2 [1] = biological target: T1, MRP2 (Homo sapiens, UniProt Q92887); assay: MRP2-mediated biliary transport of CDF (CDFDA permeation assay); details: benzbromarone 100 μM, icHep
T1 sequence (Q92887 whole entry): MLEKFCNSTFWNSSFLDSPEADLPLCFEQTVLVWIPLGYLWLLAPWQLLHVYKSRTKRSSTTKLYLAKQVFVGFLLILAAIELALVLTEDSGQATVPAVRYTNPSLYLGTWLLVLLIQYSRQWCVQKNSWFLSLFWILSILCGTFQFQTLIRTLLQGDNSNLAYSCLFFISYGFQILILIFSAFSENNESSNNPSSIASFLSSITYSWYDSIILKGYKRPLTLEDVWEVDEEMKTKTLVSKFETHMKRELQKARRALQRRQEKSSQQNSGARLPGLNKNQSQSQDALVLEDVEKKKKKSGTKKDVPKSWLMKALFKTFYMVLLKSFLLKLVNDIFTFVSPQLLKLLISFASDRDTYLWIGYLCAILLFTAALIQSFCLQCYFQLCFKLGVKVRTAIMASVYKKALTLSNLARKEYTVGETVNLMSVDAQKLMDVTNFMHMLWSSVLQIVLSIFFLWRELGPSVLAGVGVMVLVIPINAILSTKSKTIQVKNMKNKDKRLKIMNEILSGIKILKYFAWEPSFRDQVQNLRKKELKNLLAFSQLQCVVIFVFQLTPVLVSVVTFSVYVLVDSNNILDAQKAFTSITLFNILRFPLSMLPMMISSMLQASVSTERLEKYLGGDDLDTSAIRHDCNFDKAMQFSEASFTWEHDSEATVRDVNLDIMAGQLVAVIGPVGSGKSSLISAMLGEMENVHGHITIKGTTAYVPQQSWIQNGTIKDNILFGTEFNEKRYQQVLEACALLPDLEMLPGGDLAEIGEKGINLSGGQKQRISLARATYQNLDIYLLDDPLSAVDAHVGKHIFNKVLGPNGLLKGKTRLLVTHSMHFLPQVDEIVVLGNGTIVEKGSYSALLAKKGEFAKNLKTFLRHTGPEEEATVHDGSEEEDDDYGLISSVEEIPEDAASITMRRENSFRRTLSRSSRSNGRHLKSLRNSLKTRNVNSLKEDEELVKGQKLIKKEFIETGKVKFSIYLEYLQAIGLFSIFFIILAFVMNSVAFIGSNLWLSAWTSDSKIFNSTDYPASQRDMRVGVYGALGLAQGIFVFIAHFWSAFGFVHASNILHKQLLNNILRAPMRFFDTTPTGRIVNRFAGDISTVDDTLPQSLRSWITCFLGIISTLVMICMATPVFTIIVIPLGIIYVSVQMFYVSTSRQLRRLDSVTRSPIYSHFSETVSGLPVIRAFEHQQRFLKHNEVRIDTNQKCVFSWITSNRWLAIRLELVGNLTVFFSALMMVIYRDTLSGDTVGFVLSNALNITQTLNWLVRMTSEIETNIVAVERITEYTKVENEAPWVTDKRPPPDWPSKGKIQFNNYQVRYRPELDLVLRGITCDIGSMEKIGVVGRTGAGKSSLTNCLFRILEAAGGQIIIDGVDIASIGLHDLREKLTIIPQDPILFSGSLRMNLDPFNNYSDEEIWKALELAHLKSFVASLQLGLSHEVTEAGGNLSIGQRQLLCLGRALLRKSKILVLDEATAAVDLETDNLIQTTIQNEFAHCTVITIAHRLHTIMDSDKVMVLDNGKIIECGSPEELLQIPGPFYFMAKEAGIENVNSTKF

[2] = icHep permeation assay (sinusoidal to bile side) to estimate drug biliary excretion clearance; details: human
[3] = cited from earlier work
[4] = test system: sandwich-cultured PXB-cells; details: human, 1 μM
[5] = Reported human in vivo biliary excretion clearance and intrinsic clearance estimated from it (Eq. 4)
[6] = blood/plasma concentration ratio, cited from earlier work
[7] = cited from earlier work; for Observed in vivo CLbile: human
icHep = details: for intracellular amount on DFP treatment: not told
BSEP [8] = test system: BSEP
BSEP [9] = test system: BSEP; parameters: method as in PMID 23877105; details: SCHs; cited from earlier work
BSEP [10] = details: cited from earlier work
OATP1B1 = biological target: T2, OATP1B1 (Homo sapiens, UniProt Q9Y6L6)
T2 sequence (Q9Y6L6 1-691): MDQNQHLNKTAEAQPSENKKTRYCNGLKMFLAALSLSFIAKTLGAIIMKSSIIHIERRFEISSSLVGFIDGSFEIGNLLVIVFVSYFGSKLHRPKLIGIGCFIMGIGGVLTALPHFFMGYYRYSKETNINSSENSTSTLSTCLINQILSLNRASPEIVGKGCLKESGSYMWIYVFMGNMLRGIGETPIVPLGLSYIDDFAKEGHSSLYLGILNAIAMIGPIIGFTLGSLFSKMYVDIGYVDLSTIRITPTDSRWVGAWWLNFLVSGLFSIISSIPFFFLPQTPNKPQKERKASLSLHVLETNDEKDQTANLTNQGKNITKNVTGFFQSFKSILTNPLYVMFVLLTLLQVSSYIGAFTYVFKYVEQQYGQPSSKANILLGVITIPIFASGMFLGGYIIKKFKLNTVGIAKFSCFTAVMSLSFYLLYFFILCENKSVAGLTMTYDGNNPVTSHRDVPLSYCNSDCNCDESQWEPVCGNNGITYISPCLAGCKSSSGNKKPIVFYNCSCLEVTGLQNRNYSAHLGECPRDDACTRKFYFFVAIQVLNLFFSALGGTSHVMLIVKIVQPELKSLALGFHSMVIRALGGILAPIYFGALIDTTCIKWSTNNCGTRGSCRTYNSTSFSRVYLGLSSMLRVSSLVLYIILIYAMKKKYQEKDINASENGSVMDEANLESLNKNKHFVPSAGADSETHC

MRP2 [11] = biological target: T1, MRP2; details: not told
OCT1 = biological target: T3, OCT1 (Homo sapiens, UniProt O15245); details: for Uptake / CLuptake: single wells; for CLuptake, Mean: mean of wells
T3 sequence (O15245 1-554): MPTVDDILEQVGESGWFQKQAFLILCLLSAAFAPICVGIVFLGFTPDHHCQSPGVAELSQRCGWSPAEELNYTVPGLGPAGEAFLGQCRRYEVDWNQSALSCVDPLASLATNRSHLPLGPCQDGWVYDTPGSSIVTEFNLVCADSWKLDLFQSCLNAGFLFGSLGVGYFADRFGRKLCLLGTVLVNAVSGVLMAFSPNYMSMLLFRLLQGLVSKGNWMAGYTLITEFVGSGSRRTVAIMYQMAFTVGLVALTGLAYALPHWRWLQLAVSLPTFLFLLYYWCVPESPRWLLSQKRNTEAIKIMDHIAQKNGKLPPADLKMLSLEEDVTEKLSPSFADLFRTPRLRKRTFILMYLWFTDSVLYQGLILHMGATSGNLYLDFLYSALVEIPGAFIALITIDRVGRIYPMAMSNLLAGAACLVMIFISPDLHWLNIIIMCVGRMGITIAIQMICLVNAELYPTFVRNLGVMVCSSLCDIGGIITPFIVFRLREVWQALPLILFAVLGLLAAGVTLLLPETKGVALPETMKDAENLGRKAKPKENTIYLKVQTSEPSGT

[12] = Biliary excretion clearance, in vitro, observed, CLbile, int, icHep (HUM181001B), CLbile,app of icHep minus control cells
[13] = unbound fraction of the plasma protein
[14] = unbound fraction, reported value
[15] = estimated from observed CLbile with fp, Rb, Qh 1400 ml/min
[16] = estimated from observed in vivo CLbile with fp, Rb and Qh 1400 ml/min
[17] = reported in vivo biliary excretion clearance

Structure (SMILES) | hepatocyte CLint at 1 μM [2] | hepatocyte CLint at 1 μM [2, 12] | fp [3, 13] | fp [3, 14] | Predicted in vivo CLbile, int, Mean ([4]; 2 min) | BEI (%) Mean ([4]; 5 min) | Predicted in vivo CLbile, int, Mean ([4]; 5 min) | BEI (%) Mean ([4]; 10 min) | Predicted in vivo CLbile, int, Mean ([4]; 10 min) | Predicted in vivo CLbile, int, Mean ([4]; 20 min) | Observed in vivo CLbile, int [5, 15] | Observed in vivo CLbile, int [5, 16] | Rb ([6]; reported value) | Rb [6] | Observed in vivo CLbile [7, 17] | Observed in vivo CLbile ([7]; reported value) | also measured
CCc1oc2ccccc2c1C(=O)c1cc(Br)c(O)c(Br)c1 [benzbromarone] | – | – | – | – | – | – | – | – | – | – | – | – | – | – | – | – | effect of MRP2 inhibitor on the increased appearance of CDF on the bile side (MRP2 [1]): reduced this increase to the same level as the control group
CC[C@H]1OC(=O)[C@H](C)[C@@H](O[C@H]2C[C@@](C)(OC)[C@@H](O)[C@H](C)O2)[C@H](C)[C@@H](O[C@@H]2O[C@H](C)C[C@H](N(C)C)[C@H]2O)[C@](C)(O)C[C@@H](C)C(=O)[C@H](C)[C@@H](O)[C@]1(C)O [Erythromycin, erythromycin] | 0.732 ± 0.0721 µL/min/1e6 cells | 0.793 ± 0.0723 µL/min/1e6 cells | 0.305 | 0.305 | 2262 mL/min | 22.5% | 289 mL/min | 30.0% | 238 mL/min | 310 mL/min | 285 mL/min | 285 mL/min | 0.75 | 0.75 | 80.3 mL/min | 80.3 mL/min | fp, unbound fraction of the plasma protein ([3]; plasma): 0.305[37]; BEI (%) Mean ([4]; 2 min): 46.3%; BEI (%) Mean ([4]; 20 min): 54.8%; Biliary excretion clearance, in vivo, observed, CLbile ([7]; in vivo): 80.3[36] ml/min
CCOc1nc2cccc(C(=O)OC(C)OC(=O)OC3CCCCC3)c2n1Cc1ccc(-c2ccccc2-c2nnn[nH]2)cc1 (stereo not drawn) [CIL, candesartan cilexetil] | – | – | – | – | – | – | – | – | – | – | – | – | – | – | – | – | effect on intracellular accumulation of taurocholate (icHep): increased; intracellular amount on DFP treatment (icHep): increased; effect on biliary excretion clearance of taurocholate (BSEP [8]): decreased; effect on biliary excretion clearance of BSEP substrate taurocholate (BSEP [8]; CIL (10 μM) alone, taurocholate 1 μM, 120 min): did not affect; BSEP inhibition (BSEP [9]): inhibited
Cc1c(C)c2c(c(C)c1OS(=O)(=O)O)CCC(C)(COc1ccc(CC3SC(=O)NC3=O)cc1)O2 (stereo not drawn) [troglitazone sulfate] | – | – | – | – | – | – | – | – | – | – | – | – | – | – | – | – | IC50 (BSEP [10]): 4.2 µM
CC[C@]1(O)C[C@H]2CN(CCc3c([nH]c4ccccc34)[C@@](C(=O)OC)(c3cc4c(cc3OC)N(C=O)[C@H]3[C@@](O)(C(=O)OC)[C@H](OC(C)=O)[C@]5(CC)C=CCN6CC[C@]43[C@@H]65)C2)C1 [Vincristine, vincristine] | 0.173 ± 0.052 µL/min/1e6 cells | 0.128 ± 0.0438 µL/min/1e6 cells | 0.51 | 0.51 | 329 mL/min | 16.5% | 199 mL/min | 26.3% | 190 mL/min | 168 mL/min | 25.5 mL/min | 25.5 mL/min | 1.2 | 1.2 | 12.9 mL/min | 12.9 mL/min | fp, unbound fraction of the plasma protein ([3]; reported value): 0.51[47]; BEI (%) Mean ([4]; 2 min): 11.7%; BEI (%) Mean ([4]; 20 min): 40.4%
CN(Cc1cnc2nc(N)nc(N)c2n1)c1ccc(C(=O)N[C@@H](CCC(=O)O)C(=O)O)cc1 [Methotrexate, methotrexate] | 1.11 ± 0.217 µL/min/1e6 cells | 0.73 ± 0.268 µL/min/1e6 cells | 0.46 | 0.46 | 700 mL/min | 14.8% | 179 mL/min | 18.9% | 126 mL/min | 172 mL/min | 90.0 mL/min | 90.0 mL/min | 0.79 | 0.79 | 39.9 mL/min | 39.9 mL/min | fp, unbound fraction of the plasma protein ([3]; reported value): 0.46[40]
Cc1c(C)c2c(c(C)c1O)CCC(C)(COc1ccc(CC3SC(=O)NC3=O)cc1)O2 (stereo not drawn) [troglitazone] | – | – | – | – | – | – | – | – | – | – | – | – | – | – | – | – | IC50 (BSEP [10]): 2.3 µM
C[C@]12CC[C@@H]3c4ccc(O)cc4CC[C@H]3[C@@H]1CC[C@@H]2O[C@@H]1O[C@H](C(=O)O)[C@@H](O)[C@H](O)[C@H]1O [E217βG] | – | – | – | – | – | – | – | – | – | – | – | – | – | – | – | – | difference in OATP1B1 substrate uptake clearance between two donors (OATP1B1): 2.85 fold; permeability to the bile side in icHep compared to the control (MRP2 [11]): significantly increased
CCOc1nc2cccc(C(=O)O)c2n1Cc1ccc(-c2ccccc2-c2nnn[nH]2)cc1 [CAN, candesartan] | – | – | – | – | – | – | – | – | – | – | – | – | – | – | – | – | intracellular amount on DFP treatment (icHep): decreased; BSEP inhibition (BSEP [9]): not
CN(C)C(=N)N=C(N)N [Metformin] | – | – | – | – | – | – | – | – | – | – | – | – | – | – | – | – | Uptake (OCT1; icHep (HUM181001B), incubation time 0.5 min): 2.903 ul/106 cells and 3.372 ul/106 cells and 2.496 ul/106 cells and 3.301 ul/106 cells; Uptake (OCT1; icHep (HUM181001B), incubation time 1 min): 5.838 ul/106 cells and 5.176 ul/106 cells and 6.237 ul/106 cells and 6.072 ul/106 cells; Uptake (OCT1; icHep (HUM181001B), incubation time 2 min): 12.5578 ul/106 cells and 11.8508 ul/106 cells and 13.1191 ul/106 cells and 15.8618 ul/106 cells; Uptake (OCT1; icHep (HUM181001B), incubation time 5 min): 32.1771 ul/106 cells and 34.4238 ul/106 cells and 29.3661 ul/106 cells and 33.2229 ul/106 cells; CLuptake, Mean (OCT1; icHep (HUM181001B)): 7.52 ul/min/106 cells; CLuptake (OCT1; icHep (HUM181001B)): 6.72 ul/min/106 cells and 6.68 ul/min/106 cells and 6.88 ul/min/106 cells and 9.79 ul/min/106 cells; Uptake (OCT1; icHep (JFC), incubation time 0.5 min): 3.7065 ul/106 cells and 4.783 ul/106 cells and 4.1818 ul/106 cells and 4.442 ul/106 cells; Uptake (OCT1; icHep (JFC), incubation time 1 min): 7.468 ul/106 cells and 9.292 ul/106 cells and 7.7376 ul/106 cells and 10.2512 ul/106 cells; Uptake (OCT1; icHep (JFC), incubation time 2 min): 17.213 ul/106 cells and 18.5255 ul/106 cells and 16.0946 ul/106 cells and 17.048 ul/106 cells; Uptake (OCT1; icHep (JFC), incubation time 5 min): 50.6594 ul/106 cells and 43.7801 ul/106 cells and 38.495 ul/106 cells and 43.9119 ul/106 cells; CLuptake, Mean (OCT1; icHep (JFC)): 8.82 ul/min/106 cells; CLuptake (OCT1; icHep (JFC)): 7.5 ul/min/106 cells and 9.0 ul/min/106 cells and 7.1 ul/min/106 cells and 11.6 ul/min/106 cells
CN/C(=N/CCSCc1nc[nH]c1C)NC#N [Cimetidine, cimetidine] | 0.869 ± 0.0152 µL/min/1e6 cells | 0.453 ± 0.163 µL/min/1e6 cells | 0.81 | 0.81 | 2714 mL/min | 32.5% | 478 mL/min | 19.7% | 126 mL/min | 60.3 mL/min | 12.3 mL/min | 12.3 mL/min | 0.97 | 0.97 | 9.9 mL/min | 9.9 mL/min | fp, unbound fraction of the plasma protein ([3]; reported value): 0.81[32]; BEI (%) Mean ([4]; 2 min): 48.1%; BEI (%) Mean ([4]; 20 min): 19.6%
